Columns and labels:
[1] = target: T1, purified human cytochrome P450 reductase (Homo sapiens, UniProt P16435); experiment: Redox cycling catalyzed by purified human cytochrome P450 reductase; format: biochemical
T1 sequence (P16435 1-677): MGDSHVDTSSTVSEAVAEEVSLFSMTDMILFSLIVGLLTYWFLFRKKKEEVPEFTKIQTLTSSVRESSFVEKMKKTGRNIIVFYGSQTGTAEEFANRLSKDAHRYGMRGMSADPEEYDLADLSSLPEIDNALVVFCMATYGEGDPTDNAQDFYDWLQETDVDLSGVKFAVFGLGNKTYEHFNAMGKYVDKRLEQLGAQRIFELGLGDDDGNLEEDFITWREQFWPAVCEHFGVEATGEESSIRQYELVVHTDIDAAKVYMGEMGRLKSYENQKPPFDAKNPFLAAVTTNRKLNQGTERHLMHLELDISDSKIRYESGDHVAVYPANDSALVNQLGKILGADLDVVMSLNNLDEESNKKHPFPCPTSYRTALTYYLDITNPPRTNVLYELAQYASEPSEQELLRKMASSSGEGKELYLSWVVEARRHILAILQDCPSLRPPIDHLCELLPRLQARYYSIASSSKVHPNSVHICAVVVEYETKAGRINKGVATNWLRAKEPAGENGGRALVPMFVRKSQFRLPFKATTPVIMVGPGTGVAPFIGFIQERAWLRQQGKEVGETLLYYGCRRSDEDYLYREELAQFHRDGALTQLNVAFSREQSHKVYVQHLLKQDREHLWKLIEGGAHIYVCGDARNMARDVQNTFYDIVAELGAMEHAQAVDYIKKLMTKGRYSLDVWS

[2] = Interaction of BA Hsp90 inhibitors with reduced glutathione (HPLC, LC-MS, [3H] glutathione)
Method: GM-glutathione conjugate formation was analyzed by HPLC and LC-MS. Briefly, 50 μM GM, 500 μM NADH, and 5 mM glutathione in the absence and presence of 11.8 μg rh-NQO1 and in the absence or presence of 2 μM ES936, were incubated in 50 mM potassium phosphate buffer, pH 7.4 (1 ml) at room temperature for 5 min. GM-glutathione conjugate formation was analyzed by HPLC at 270 nm (5 min).
Reaction conditions were: 50 μM 17DMAG, 500 μM NADH, and 5 mM glutathione, in the absence and presence of 11.8 μg rhNQO1 and in the absence or presence of 2 μM ES936, were incubated in 50 mM potassium phosphate buffer, pH 7.4 (1 ml) at room temperature for 3 h. 17DMAG-glutathione conjugate formation was analyzed by HPLC at 270 nm (3 h).
Reaction conditions were: 50 μM BA and 5 mM GSH were incubated in 50 mM potassium phosphate buffer, pH 7.4 (1 ml) at room temperature in the absence and presence of 11.8 μg of rhNQO1 and 500 μM NADH. BA-GSH conjugate formation was analyzed by HPLC at 270 nm and further confirmed by LC-MS. The amount of BA glutathione conjugate formation was quantified using [3H] glutathione.

[3] = target: T2, NADPH-cytochrome P450 reductase (human liver microsomes) (Homo sapiens, UniProt P16435); experiment: One-electron redox cycling of BAs in human liver microsomes (oxygen consumption rate); format: in vitro ADME; details: NADPH- or NADH-dependent, 50 μM BA
T2 construct: Using human and mouse liver microsomes and either NADPH or NADH as cofactors; from tissue; host or cells: human liver microsomes
T2 sequence (P16435 1-677): T1 sequence (P16435 1-677)
Method: (§1) Using human and mouse liver microsomes and either NADPH or NADH as cofactors, the relative one-electron redox cycling rates of BAs mediated by NADPH-cytochrome P450 reductase were determined by measuring the rates of oxygen consumption. The rates of oxygen consumption and NAD(P)H oxidation were measured as indicators of the relative redox cycling rates of BAs. […] The oxygen consumption rate was measured using a Clark electrode (air tight) over 10 min.

[4] = target: T3, NADPH-cytochrome P450 reductase (mouse liver microsomes) (Mus musculus, UniProt P37040); experiment: One-electron redox cycling of BAs in mouse liver microsomes (oxygen consumption rate); format: in vitro ADME; details: NADPH- or NADH-dependent, 50 μM BA
T3 construct: Using human and mouse liver microsomes and either NADPH or NADH as cofactors; from tissue; host or cells: mouse liver microsomes
T3 sequence (P37040 1-678): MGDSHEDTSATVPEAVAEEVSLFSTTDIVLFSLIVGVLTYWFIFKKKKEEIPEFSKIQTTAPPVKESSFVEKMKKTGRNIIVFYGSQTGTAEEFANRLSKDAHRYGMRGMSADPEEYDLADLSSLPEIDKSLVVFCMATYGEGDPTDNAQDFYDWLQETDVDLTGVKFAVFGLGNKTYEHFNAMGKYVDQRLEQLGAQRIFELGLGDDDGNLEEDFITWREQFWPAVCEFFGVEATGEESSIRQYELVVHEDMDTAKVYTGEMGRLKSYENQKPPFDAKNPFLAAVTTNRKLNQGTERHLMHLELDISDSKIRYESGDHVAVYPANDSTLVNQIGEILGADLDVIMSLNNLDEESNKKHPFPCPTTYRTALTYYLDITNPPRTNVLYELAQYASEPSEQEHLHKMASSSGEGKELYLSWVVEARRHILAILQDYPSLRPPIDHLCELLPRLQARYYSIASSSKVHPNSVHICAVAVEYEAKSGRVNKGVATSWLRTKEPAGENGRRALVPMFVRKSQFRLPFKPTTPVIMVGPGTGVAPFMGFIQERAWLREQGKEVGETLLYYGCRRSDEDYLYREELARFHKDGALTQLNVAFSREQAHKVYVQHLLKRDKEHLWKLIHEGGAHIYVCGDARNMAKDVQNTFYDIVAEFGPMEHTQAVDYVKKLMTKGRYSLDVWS
Method: as §1

[5] = cited from earlier work; for hepatotoxicity rank within the BA series: series GM, 17AAG, 17DMAG, 17AG, 17AEP-GA
[6] = 50 μM BA, 5 mM reduced glutathione, pH 7.4, room temperature

CO[C@H]1/C=C\C=C(/C)C(=O)NC2=CC(=O)C(NCCN(C)C)=C(C[C@@H](C)C[C@H](OC)[C@H](O)[C@@H](C)/C=C(\C)[C@@H]1OC(N)=O)C2=O [17DMAG, 17-demthoxy-17-[[2-(dimethylamino)ethyl]amino]-geldanamycin]
rate of redox cycling [1]: greatest rate | 17DMAGH2-SG conjugate detection [2, 6]: not detected | relative rate of glutathione conjugate formation (rank order in the series) [2, 6]: GM>17DMAG>17AEP-GA>17AAG and 17AG | 17DMAG-SG conjugate formed ([2]; 50 μM BA, 5 mM reduced glutathione, pH 7.4, room temperature, within 4 h): approximately 47 μM

COC1=C2C[C@@H](C)C[C@H](OC)[C@H](O)[C@@H](C)/C=C(\C)[C@H](OC(N)=O)[C@@H](OC)/C=C\C=C(/C)C(=O)NC(=CC1=O)C2=O [GM, geldanamycin]
relative rate of metabolism (one-electron redox cycling, oxygen consumption) [3]: relatively rapid rate | relative rate of metabolism (one-electron redox cycling, oxygen consumption) [4]: relatively rapid rate | relative rate of glutathione conjugate formation (rank order in the series) ([2]; 50 μM, pH 7.4): GM>17DMAG>17AEP-GA>17AAG and 17AG | GMH2-SG conjugate formed ([2]; 5 min, 50 μM, pH 7.4): approximately 45 μM | hepatotoxicity ([5]; administration, Phase I clinical trials): unacceptable hepatotoxicity | hepatotoxicity rank within the BA series [5]: most hepatotoxic

CO[C@H]1/C=C\C=C(/C)C(=O)NC2=CC(=O)C(NCCN3CCCC3)=C(C[C@@H](C)C[C@H](OC)[C@H](O)[C@@H](C)/C=C(\C)[C@@H]1OC(N)=O)C2=O [17AEP-GA, 17-demethoxy-17-[[2-(pyrrolidin-1-yl)ethyl]amino]-geldanamycin]
relative rate of glutathione conjugate formation (rank order in the series) [2, 6]: GM>17DMAG>17AEP-GA>17AAG and 17AG | fraction conjugated with glutathione ([2]; 50 μM BA, 5 mM reduced glutathione, pH 7.4, room temperature, within 10 h): about 90%

CO[C@H]1/C=C\C=C(/C)C(=O)NC2=CC(=O)C(N)=C(C[C@@H](C)C[C@H](OC)[C@H](O)[C@@H](C)/C=C(\C)[C@@H]1OC(N)=O)C2=O [17AG, 17-(amino)-17-demethoxygeldanamycin]
formation of glutathione conjugate (speed, in words) [2, 6]: very slow | relative rate of glutathione conjugate formation (rank order in the series) [2, 6]: GM>17DMAG>17AEP-GA>17AAG and 17AG

C=CCNC1=C2C[C@@H](C)C[C@H](OC)[C@H](O)[C@@H](C)/C=C(\C)[C@H](OC(N)=O)[C@@H](OC)/C=C\C=C(/C)C(=O)NC(=CC1=O)C2=O [17AAG, 17-(allylamino)-17-demethoxygeldanamycin]
formation of glutathione conjugate (speed, in words) [2, 6]: very slow | hepatotoxicity rank within the BA series [5]: least hepatotoxic
